Structures are written as SMILES. Converted amounts (≈) assume the structure as drawn. Bridge positions count the residues as written; N and C are the ends. Square brackets hold non-standard residues; d marks the D form. Peptide text beside a SMILES is read from it. * marks the point of attachment. X1 = CC[C@H](C)CCCCC(=O)*; Dab = NCC[C@H](N)C(=O)O

Holding throughout (format): cell-based, Staphylococcus aureus
Assay [1] relates to S. aureus JE2 atpB transposon mutant (SAUSA300_2064). The conditions noted are these: Etest on TSA. The text has this: (§1) Staphylococcus aureus is intrinsically resistant to the clinically approved cationic antimicrobial peptides polymyxin B (PMB) and colistin ([1], [16]). […] The MIC for PMB was subsequently determined using Etests for the identified mutants. Nineteen mutants were confirmed to be at least 2-fold more susceptible than the WT (Table 1). As expected, we identified transposon insertions in graS, graR, vraF, and vraG, corroborating previous work on these determinants in S. aureus in relation to increased PMB susceptibility ([12]).
(§2) The strains used in this study include S. aureus strain JE2 (plasmid-cured derivative of USA300 LAC) and all derivative strains within the Nebraska Transposon Mutant Library (NTML), consisting of 1,920 unique transposon mutants with inactivation of nonessential genes ([15]). The bursa aurealis transposon used to create the collection contains the resistance cassette ermB, which confers resistance to erythromycin ([15]). Additionally we used S. aureus SA113 and two derivatives, SA113 ΔdltA ([9]) and SA113 ΔmprF ([10]). All bacterial strains were cultured at 37°C in tryptic soy broth (TSB) or on tryptic soy agar (TSA), with antimicrobial agents added as indicated. Two methods have been employed to determine MICs to various antimicrobial agents. (i) A 2-fold broth microdilution assay in TSB (100 µl) with an initial inoculum of approximately 5 × 10^5 cells/ml was employed to determine the MICs of polymyxin B sulfate (Sigma), gallidermin (Santa Cruz Biotechnology), nisin (Sigma), bacitracin (Sigma), and LL-37 (Isca Biochemicals). (ii) An Etest (BioMérieux) performed on TSA plates was employed to determine MICs for polymyxin B, colistin, ciprofloxacin, oxacillin, linezolid, gentamicin, vancomycin, and daptomycin. The MIC was determined upon incubation at 37°C for 22 h. When indicated, the Etest (BioMérieux) was performed on Mueller-Hinton agar plates (cation adjusted for calcium and magnesium).

Assay [2] has as its system S. aureus JE2 lspA transposon mutant (SAUSA300_1089). The settings on record: Etest on TSA, 37°C, 22 h.
Text: as §1, §2

The subject of assay [3] is S. aureus JE2 transposon mutant SAUSA300_0918 (diacylglycerol glucosyltransferase). The conditions noted are these: Etest on TSA, 37°C, 22 h.
Text: as §1, §2

The test system of assay [4] is S. aureus JE2 transposon mutant SAUSA300_0980 (hypothetical protein). The conditions noted are these: Etest on TSA, 37°C, 22 h.
Text: as §1, §2

In assay [5] the test system is S. aureus JE2 transposon mutant SAUSA300_1254 (hypothetical protein). The settings on record: Etest on TSA, 37°C, 22 h.
Text: as §1, §2

The subject of assay [6] is S. aureus JE2 transposon mutant SAUSA300_1495 (hypothetical protein). The conditions noted are these: Etest on TSA, 37°C, 22 h.
Text: as §1, §2

For assay [7], the system named is S. aureus JE2 transposon mutant SAUSA300_1785 (putative ABC transporter protein EcsB). The settings on record: Etest on TSA, 37°C, 22 h.
Text: as §1, §2

For assay [8], the system named is S. aureus JE2 transposon mutant SAUSA300_1802 (hypothetical protein). The conditions noted are these: Etest on TSA, 37°C, 22 h.
Text: as §1, §2

The subject of the next assay is S. aureus JE2 (WT). The conditions noted are these: Etest on cation-adjusted Mueller-Hinton agar, 37°C, 22 h. The method, then: (§3) It has been reported that growth medium composition can affect polymyxin MIC ([23]): therefore, we also tested polymyxin B MICs of the WT and atpA, graR, vraG, and vraF mutants by employing the Etest on cation-adjusted Mueller-Hinton (MH) agar. […] Polymyxin B breakpoints for Pseudomonas aeruginosa are susceptible at a MIC of ≤2 μg/ml, intermediate at a MIC of 4 μg/ml, and resistant at a MIC of ≥8 μg/ml, whereas for Acinetobacter spp., a MIC of ≥4 μg/ml is considered resistant.
as §2

Assay [9] deals with S. aureus JE2 atpA mutant. The settings on record: Etest on cation-adjusted Mueller-Hinton agar, 37°C, 22 h. The method, then:
as §3, §2

Assay [10] deals with S. aureus JE2 graR mutant. The settings on record: Etest on cation-adjusted Mueller-Hinton agar, 37°C, 22 h. The method, then:
as §3, §2

For assay [11], the system named is S. aureus JE2 vraF mutant. The conditions noted are these: Etest on cation-adjusted Mueller-Hinton agar, 37°C, 22 h. How it is done: as §3, §2
For assay [12], the system named is S. aureus JE2 vraG mutant. The conditions noted are these: Etest on cation-adjusted Mueller-Hinton agar, 37°C, 22 h. How it is done: as §3, §2
In assay [13] the test system is S. aureus SA113 (wild type). The conditions noted are these: MIC method not given, 37°C, 22 h.
Text: (§4) Lysinylation of phosphatidylglycerols therefore seems to mediate selective protection against certain cationic antimicrobial peptides.
as §2, with “The MIC was determined upon incubation at 37°C for 22 h. When indicated, the Etest (BioMérieux) was performed on Mueller-Hinton agar plates (cation adjusted for calcium and magnesium).” left out

Assay [14] has as its system S. aureus SA113 ΔmprF mutant. The conditions noted are these: MIC method not given, 37°C, 22 h.
Text: as §4
as §2, with “The MIC was determined upon incubation at 37°C for 22 h. When indicated, the Etest (BioMérieux) was performed on Mueller-Hinton agar plates (cation adjusted for calcium and magnesium).” left out

Assay [15] has as its system S. aureus SA113 ΔdltA mutant. The conditions noted are these: MIC method not given, 37°C, 22 h.
Text: as §2

For the compound `CC[C@H](C)CCCCC(=O)N[C@@H](CCN)C(=O)N[C@H](C(=O)N[C@@H](CCN)C(=O)N[C@H]1CCNC(=O)[C@H]([C@@H](C)O)NC(=O)[C@H](CCN)NC(=O)[C@H](CCN)NC(=O)[C@H](CC(C)C)NC(=O)[C@@H](Cc2ccccc2)NC(=O)[C@H](CCN)NC1=O)[C@@H](C)O` [Polymyxin B, polymyxin B] (X1-[Dab]T[Dab][Dab][Dab][dF]L[Dab][Dab]T; lactam 4-C (inferred); N-terminus assumed), the MIC worked out at 16 µg/mL (≈ 13.3 µM) in assay [1] (37°C, 22 h, atpB mutant); 64 µg/mL (≈ 53.2 µM) in [2]; 64 µg/mL (≈ 53.2 µM) in [3]; 48 µg/mL (≈ 39.9 µM) in assay [4]; 48 µg/mL (≈ 39.9 µM) in [5]; 64 µg/mL (≈ 53.2 µM) in assay [6]. The MIC was 48 µg/mL (≈ 39.9 µM) in assay [7]; 64 µg/mL (≈ 53.2 µM) in assay [8]; 8 to 16 µg/mL with S. aureus JE2 (WT); 2 to 4 µg/mL in assay [9]; 1 to 2 µg/mL in assay [10]; 1.5 to 2 µg/mL in [11]. Also, the MIC in assay [12] was 1.5 to 2 µg/mL; in assay [13], 512 µg/mL (≈ 425 µM); in assay [14], 384 µg/mL (≈ 319 µM); in assay [15], 48 µg/mL (≈ 39.9 µM). Besides, in assay [1] (atpB mutant vs WT JE2), the “fold reduction in MIC relative to WT” value is reported as 8 fold.

These data come from article PMC5587909, “Inhibition of the ATP Synthase Eliminates the Intrinsic Resistance of Staphylococcus aureus towards Polymyxins” (mBio, 2017).
